Source: patent US20130040935A1, “CYCLIC KETO-ENOLS FOR THERAPY” (BAYER INTELLECTUAL PROPERTY GMBH, priority 2010, published 2013)
Where two headings read alike, the source gives them in different places.

Experiments:
[1] = target: T1, human ACC1 (acetyl-coenzyme A carboxylase alpha transcript variant 1) (Homo sapiens, UniProt Q13085); assay: Human ACC1 enzyme assay, Assay B1 (ADP-Glo); format: biochemical
T1 construct: FLAG (C); made in house; host or cells: baculovirus-infected insect cells (Hi5)
Experimental: (§1) Essentially, the enzyme activity is measured by quantifying the adenosine diphosphate (ADP) formed as a byproduct of the enzyme reactions using the ADP-Glo™ detection system from Promega. In this test, initially the adenosine triphosphate (ATP) not consumed in the enzyme reaction is converted quantitatively with an adenylate cyclase (“ADP-GLO reagent”) into cAMP, the adenylate cyclase is then stopped and (“kinase detection reagent”) the ADP formed is subsequently converted into ATP, which is converted in a luciferase-based reaction into a glow luminescence signal.
The concentration of the hACC1 was adapted to the respective activity of the enzyme and adjusted such that the assay operated in the linear range. […] The amount of light emitted was taken as a measure for the amount of ADP formed and thus for the enzyme activity of the hACC1.

MCF7 = assay: Cell proliferation assay (CellTiter-Glo, 96 h), MCF7; format: cell-based; details: Homo sapiens
Experimental: In accordance with the invention, the substances were tested in cell-based assays for the ability of the substances of inhibiting tumour cell proliferation after a 96-hour incubation with the substance. Cell viability was tested using the CellTiter-Glo® luminescent cell viability assay (Promega). The cells were sown at a density of 2000-5000 cells/well (depending on the cell line) in 100 μl growth medium on 96-well microtitre plates. For each cell line examined, cells were sown on a separate plate to determine the luminescence at t=0 hours and t=96 hours. After overnight incubation at 37° C., the luminescence values for the t=0 samples were determined. The dose plates for the t=96 hours points in time were treated with substances diluted with growth medium. The cells were then incubated at 37° C. for 96 hours, and the luminescence values for the t=96 hours sample were then determined. For data analysis, the t=0 values were subtracted from the t=96 hour values for treated and untreated samples. The differences in luminescence in percent between substance-treated samples and control values were used to determine the growth inhibition in percent.
The substances were tested in the following cell lines which represent the stated indications in an exemplary manner: […]

[2] = target: human ACC2 (acetyl-coenzyme A carboxylase 2) (Homo sapiens, UniProt O00763); assay: Human ACC2 enzyme assay, Assay B2 (ADP-Glo);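 also: human ACC2 activity read as ADP product, detected by luciferase glow luminescence after residual ATP removal, enzyme near 2 ng/µl in linear range, detection steps at 22 °C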
Experimental: The hACC2-inhibitory action of the substances of the present invention was measured in the hACC2 assay described in the paragraphs below.
as §1
The concentration of the hACC2 was adapted to the respective activity of the enzyme and adjusted such that the assay operated in the linear range. Typical concentrations were in the range of 2 ng/μl. […] The amount of light emitted was taken as a measure for the amount of ADP formed and thus for the enzyme activity of the hACC2.

[3] = Assay B1, ADP-Glo, read-out: ACC 1 (=B1) IC50
[4] = Assay B1, read-out: ACC 1 (=B1) IC50
[5] = MCF7, Table 9a, 96-hour incubation

Sequence of human ACC2 (acetyl-coenzyme A carboxylase 2) (O00763 27-2458 limits assumed): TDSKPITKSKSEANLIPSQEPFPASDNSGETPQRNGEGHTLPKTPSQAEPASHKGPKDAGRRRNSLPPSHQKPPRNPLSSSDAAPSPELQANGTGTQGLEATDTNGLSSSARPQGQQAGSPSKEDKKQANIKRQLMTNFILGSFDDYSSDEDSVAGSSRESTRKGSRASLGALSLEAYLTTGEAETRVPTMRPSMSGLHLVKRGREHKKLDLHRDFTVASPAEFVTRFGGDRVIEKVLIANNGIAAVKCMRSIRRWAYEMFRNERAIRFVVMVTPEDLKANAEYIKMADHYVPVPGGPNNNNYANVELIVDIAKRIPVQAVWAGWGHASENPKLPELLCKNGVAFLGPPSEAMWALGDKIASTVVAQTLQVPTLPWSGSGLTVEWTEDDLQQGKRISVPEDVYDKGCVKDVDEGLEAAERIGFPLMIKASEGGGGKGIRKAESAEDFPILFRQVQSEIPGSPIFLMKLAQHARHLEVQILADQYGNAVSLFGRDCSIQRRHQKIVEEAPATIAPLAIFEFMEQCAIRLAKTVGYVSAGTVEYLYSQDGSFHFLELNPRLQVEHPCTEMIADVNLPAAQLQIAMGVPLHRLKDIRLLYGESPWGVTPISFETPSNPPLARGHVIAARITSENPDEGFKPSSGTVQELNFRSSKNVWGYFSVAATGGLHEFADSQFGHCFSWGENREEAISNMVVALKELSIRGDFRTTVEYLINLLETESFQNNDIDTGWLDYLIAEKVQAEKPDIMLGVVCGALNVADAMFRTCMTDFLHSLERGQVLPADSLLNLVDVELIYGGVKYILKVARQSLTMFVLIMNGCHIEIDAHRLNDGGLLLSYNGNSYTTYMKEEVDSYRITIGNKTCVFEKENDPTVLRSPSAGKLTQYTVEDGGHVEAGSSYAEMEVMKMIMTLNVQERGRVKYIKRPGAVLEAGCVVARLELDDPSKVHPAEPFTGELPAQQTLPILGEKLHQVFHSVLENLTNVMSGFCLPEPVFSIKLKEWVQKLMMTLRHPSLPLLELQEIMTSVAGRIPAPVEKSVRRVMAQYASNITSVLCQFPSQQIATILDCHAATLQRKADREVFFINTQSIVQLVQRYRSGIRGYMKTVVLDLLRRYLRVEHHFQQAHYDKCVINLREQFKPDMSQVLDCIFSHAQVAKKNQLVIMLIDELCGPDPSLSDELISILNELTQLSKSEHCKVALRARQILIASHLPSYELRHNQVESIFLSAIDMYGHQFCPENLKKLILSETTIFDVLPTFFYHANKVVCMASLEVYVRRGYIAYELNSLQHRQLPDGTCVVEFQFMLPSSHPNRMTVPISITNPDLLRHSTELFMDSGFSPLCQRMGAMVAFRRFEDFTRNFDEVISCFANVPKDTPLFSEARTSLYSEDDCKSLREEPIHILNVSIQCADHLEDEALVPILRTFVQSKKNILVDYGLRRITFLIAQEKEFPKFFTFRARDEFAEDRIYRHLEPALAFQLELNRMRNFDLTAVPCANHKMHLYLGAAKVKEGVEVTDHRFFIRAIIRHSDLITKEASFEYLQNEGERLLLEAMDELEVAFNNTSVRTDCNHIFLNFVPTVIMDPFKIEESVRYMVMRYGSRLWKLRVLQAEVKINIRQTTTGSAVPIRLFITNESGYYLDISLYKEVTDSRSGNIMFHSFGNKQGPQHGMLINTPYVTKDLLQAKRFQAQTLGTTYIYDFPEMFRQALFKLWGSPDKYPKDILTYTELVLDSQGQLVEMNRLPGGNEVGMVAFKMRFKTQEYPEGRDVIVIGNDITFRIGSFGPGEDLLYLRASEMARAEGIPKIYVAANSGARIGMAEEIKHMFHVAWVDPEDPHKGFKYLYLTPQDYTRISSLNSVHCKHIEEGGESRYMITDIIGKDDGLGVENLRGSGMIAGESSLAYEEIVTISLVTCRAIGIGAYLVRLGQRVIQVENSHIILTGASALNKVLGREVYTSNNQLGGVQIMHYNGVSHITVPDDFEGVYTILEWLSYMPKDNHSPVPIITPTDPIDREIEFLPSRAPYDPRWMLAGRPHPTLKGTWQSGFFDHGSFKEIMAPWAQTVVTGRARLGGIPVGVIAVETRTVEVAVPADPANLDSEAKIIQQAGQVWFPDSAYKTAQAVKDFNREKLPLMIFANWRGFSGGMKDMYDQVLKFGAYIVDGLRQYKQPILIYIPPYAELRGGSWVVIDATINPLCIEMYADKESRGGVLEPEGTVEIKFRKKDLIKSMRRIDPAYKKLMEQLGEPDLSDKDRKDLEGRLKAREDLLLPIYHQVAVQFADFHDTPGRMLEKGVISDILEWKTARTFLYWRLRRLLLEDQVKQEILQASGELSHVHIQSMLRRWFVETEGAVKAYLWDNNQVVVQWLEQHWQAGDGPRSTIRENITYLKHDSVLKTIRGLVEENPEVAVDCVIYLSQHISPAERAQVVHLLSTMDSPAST

SMILES	IC50 [2]	IC50 (MCF7; MCF7 cells)	IC50 [1, 3]	IC50 [1, 4]	IC50 (MCF7; [5])	IC50 ([2]; read-out: ACC 2 (=B2) IC50, Assay B2)	IC50 [1]	IC50 (MCF7; MCF7, Table 7, 96-hour incubation)
COCCC1CCC2(CC1)NC(=O)C(c1c(C)ccc(-c3ccc(Cl)cc3)c1C)=C2O (stereo not drawn) [1-57, 3-(4′-chloro-2,4-dimethylbiphenyl-3-yl)-4-hydroxy-8-(2-methoxyethyl)-1-azaspiro[4.5]dec-3-en-2-one]	1680 nM	–	–	–	–	–	1290 nM	250 nM
Cc1ccc(-c2ccc(Cl)cc2)cc1C1=C(O)C(C)(C)OC1=O [2-3, 3-(4′-chloro-4-methylbiphenyl-3-yl)-4-hydroxy-5,5-dimethylfuran-2(5H)-one]	> 20000 nM	1060 nM	–	–	–	–	3730 nM	–
Cc1ccc(-c2ccc(Cl)cc2)c(C)c1C1=C(O)C2(CCCCC2)OC1=O [2-4, 3-(4′-chloro-2,4-dimethylbiphenyl-3-yl)-4-hydroxy-1-oxaspiro[4.5]dec-3-en-2-one]	2700 nM	624 nM	175 nM	–	–	–	–	–
Cc1cc(C)c(-c2ccc(Cl)cc2)c(C)c1C1=C(O)C2(CCCCC2)OC1=O [2-6, 3-(4′-chloro-2,4,6-trimethylbiphenyl-3-yl)-4-hydroxy-1-oxaspiro[4.5]dec-3-en-2-one]	5420 nM	724 nM	6850 nM	–	–	–	–	–
COC1CCCC2(C1)OC(=O)C(c1c(C)cc(C)c(-c3ccc(Cl)cc3)c1C)=C2O (stereo not drawn) [2-12, 3-(4′-chloro-2,4,6-trimethylbiphenyl-3-yl)-4-hydroxy-7-methoxy-1-oxaspiro[4.5]dec-3-en-2-one]	3420 nM	1240 nM	–	–	–	–	4260 nM	–
COCC1CCC2(CC1)OC(=O)C(c1c(C)ccc(-c3ccc(Cl)cc3)c1C)=C2O (stereo not drawn) [2-17, 3-(4′-chloro-2,4-dimethylbiphenyl-3-yl)-4-hydroxy-8-(methoxymethyl)-1-oxaspiro[4.5]dec-3-en-2-one]	1180 nM	400 nM	58 nM	–	–	–	–	–
COCCC1CCCC2(C1)OC(=O)C(c1cc(-c3ccc(Cl)cc3)ccc1C)=C2O (stereo not drawn) [2-18, 3-(4′-chloro-4-methylbiphenyl-3-yl)-4-hydroxy-7-(2 methoxyethyl)-1-oxaspiro[4.5]dec-3-en-2-one]	12200 nM	935 nM	276 nM	–	–	–	–	–
COCC1CCC2(CC1)OC(=O)C(c1cc(-c3ccc(Cl)cc3)ccc1C)=C2O (stereo not drawn) [2-20, 3-(4′-chloro-4-methylbiphenyl-3-yl)-4-hydroxy-8-(methoxymethyl)-1-oxaspiro[4.5]dec-3-en-2-one]	1720 nM	214 nM	102 nM	–	–	–	–	–
Cc1ccc(-c2ccc(Cl)cc2)c(C)c1C1=C(O)[C@]2(CC[C@]3(CCCO3)CC2)OC1=O [2-26, (5s,8r)-3-(4′-chloro-2,4-dimethylbiphenyl-3-yl)-4-hydroxy-1,9-dioxadispiro[4.2.4.2]tetradec-3-en-2-one]	> 20000 nM	5520 nM	6110 nM	–	–	–	–	–
Cc1ccc(-c2ccc(F)cc2)cc1C1=C(O)[C@]2(CC[C@@]3(CCCO3)CC2)OC1=O [2-28, (5r,8s)-3-(4′-fluoro-4-methylbiphenyl-3-yl)-4-hydroxy-1,9-dioxadispiro[4.2.4.2]tetradec-3-en-2-one]	4600 nM	296 nM	128 nM	–	–	–	–	–
Cc1cc(C)c(-c2ccc(Cl)cc2)c(C)c1C1=C(O)[C@]2(CC[C@@]3(CCCO3)CC2)OC1=O [2-31, (5r,8s)-3-(4′-chloro-2,4,6-trimethylbiphenyl-3-yl)-4-hydroxy-1,9-dioxadispiro[4.2.4.2]tetradec-3-en-2-one]	76 nM	490 nM	–	–	–	–	2000 nM	–
Cc1ccc(-c2ccc(Cl)cc2)c(C)c1C1=C(O)C2(CCC(OCC(F)(F)F)CC2)OC1=O (stereo not drawn) [2-32, 3-(4′-chloro-2,4-dimethylbiphenyl-3-yl)-4-hydroxy-8-(2,2,2-trifluoroethoxy)-1-oxaspiro[4.5]dec-3-en-2-one]	2820 nM	112 nM	–	–	–	–	339 nM	–
Cc1cc(C)c(-c2ccc(Cl)cc2)cc1C1=C(O)C2(CCSCC2)OC1=O [2-42, 3-(4′-chloro-4,6-dimethylbiphenyl-3-yl)-4-hydroxy-1-oxa-8-thiaspiro[4.5]dec-3-en-2-one]	1560 nM	466 nM	246 nM	–	–	–	–	–
Cc1cc(C)c(-c2ccc(Cl)cc2)cc1C1=C(O)C2(CCCCCC2)OC1=O [2-43, 3-(4′-chloro-4,6-dimethylbiphenyl-3-yl)-4-hydroxy-1-oxaspiro[4.6]undec-3-en-2-one]	737 nM	263 nM	–	–	–	–	168 nM	–
COC1CCC2(CC1)OC(=O)C(c1cc(-c3ccc(Cl)cc3)c(C)cc1C)=C2O (stereo not drawn) [2-44, 3-(4′-chloro-4,6-dimethylbiphenyl-3-yl)-4-hydroxy-8-methoxy-1-oxaspiro[4.5]dec-3-en-2-one]	244 nM	121 nM	–	–	–	–	220 nM	–
Cc1cc(C)c(-c2ccc(Cl)cc2)cc1C1=C(O)C(C)OC1=O (stereo not drawn) [2-45, 3-(4′-chloro-4,6-dimethylbiphenyl-3-yl)-4-hydroxy-5-methylfuran-2(5H)-one]	17500 nM	6700 nM	–	–	–	–	1830 nM	–
Cc1cc(C)c(-c2ccc(Cl)cc2)c(C)c1C1=C(O)C2(CCCCCC2)OC1=O [2-48, 3-(4′-chloro-2,4,6-trimethylbiphenyl-3-yl)-4-hydroxy-1-oxaspiro[4.6]undec-3-en-2-one]	417 nM	762 nM	1540 nM	–	–	–	–	–
Cc1cc(C)c(-c2ccc(Cl)cc2)cc1C1=C(O)C2(CCCCC2)SC1=O [3-3, 3-(4′-chloro-4,6-dimethylbiphenyl-3-yl)-4-hydroxy-1-thiaspiro[4.5]dec-3-en-2-one]	1150 nM	–	–	265 nM	575 nM	–	–	–
Cc1cc(C)c(-c2ccc(Cl)cc2)c(C)c1C1=C(O)C2(CCCCC2)CC1=O [6-9, 3-(4′-chloro-2,4,6-trimethylbiphenyl-3-yl)-4-hydroxyspiro[4.5]dec-3-en-2-one]	2120 nM	–	–	–	1520 nM	–	≥ 20000 nM	–

Further lines, with some results ahead:

IC50 [2]	IC50 (MCF7; MCF7 cells)	IC50 [1, 3]	IC50 [1, 4]	IC50 (MCF7; [5])	IC50 ([2]; read-out: ACC 2 (=B2) IC50, Assay B2)	SMILES	IC50 [1]	IC50 (MCF7; MCF7, Table 7, 96-hour incubation)
19700 nM	–	–	411 nM	545 nM	–	Cc1ccc(-c2ccc(C)c(C3=C(O)C4(CCCCC4)CC3=O)c2)cc1 [6-1, 3-(4,4′-dimethylbiphenyl-3-yl)-4-hydroxyspiro[4.5]dec-3-en-2-one]	–	–
3230 nM	–	–	263 nM	194 nM	–	Cc1ccc(-c2ccc(Cl)cc2Cl)cc1C1=C(O)C2(CCCCC2)CC1=O [6-2, 3-(2′,4′-dichloro-4-methylbiphenyl-3-yl)-4-hydroxyspiro[4.5]dec-3-en-2-one]	–	–
1210 nM	–	–	523 nM	605 nM	–	CCC1CCC2(CC1)CC(=O)C(c1cc(-c3ccc(Cl)cc3)ccc1C)=C2O (stereo not drawn) [6-5, 3-(4′-chloro-4-methylbiphenyl-3-yl)-8-ethyl-4-hydroxyspiro[4.5]dec-3-en-2-one]	–	–
1250 nM	–	–	946 nM	582 nM	–	CCCC1CCC2(CC1)CC(=O)C(c1cc(-c3ccc(Cl)cc3)ccc1C)=C2O (stereo not drawn) [6-6, 3-(4′-chloro-4-methylbiphenyl-3-yl)-4-hydroxy-8-propylspiro[4.5]dec-3-en-2-one]	–	–
7190 nM	–	–	1030 nM	338 nM	–	Cc1ccc(-c2ccc(Cl)cc2)cc1C1=C(O)C2(CCCCCC2)CC1=O [6-7, 3-(4′-chloro-4-methylbiphenyl-3-yl)-4-hydroxyspiro[4.6]undec-3-en-2-one]	–	–
151 nM	–	–	1160 nM	254 nM	–	Cc1cc(C)c(-c2ccc(Cl)cc2)cc1C1=C(O)C2(CCCCC2)CC1=O [6-8, 3-(4′-chloro-4,6-dimethylbiphenyl-3-yl)-4-hydroxyspiro[4.5]dec-3-en-2-one]	–	–
13000 nM	–	–	1740 nM	974 nM	–	Cc1cc(C)c(-c2ccc(Cl)cc2)cc1C1=C(O)CC(C)(C)CC1=O [7-3, 2-(4′-chloro-4,6-dimethylbiphenyl-3-yl)-3-hydroxy-5,5-dimethylcyclohex-2-en-1-one]	–	–
> 20000 nM	–	–	7110 nM	2630 nM	–	Cc1cc(C)c(-c2ccc(Cl)cc2)cc1C1=C(O)C(C)(C)CCC1=O [7-4, 2-(4′-chloro-4,6-dimethylbiphenyl-3-yl)-3-hydroxy-4,4-dimethylcyclohex-2-en-1-one]	–	–
> 20000 nM	1720 nM	–	11200 nM	–	–	Cc1ccc(-c2ccc(Cl)cc2)cc1C1=C(O)C(C)(C)CNC1=O [9-2, 3-(4′-chloro-4-methylbiphenyl-3-yl)-4-hydroxy-5,5-dimethyl-5,6-dihydropyridin-2(1H)-one]	–	–
> 20000 nM	1530 nM	–	2340 nM	–	–	Cc1ccc(-c2ccc(Cl)cc2)cc1C1=C(O)C2(CCCCC2)CNC1=O [9-3, 4-(4′-chloro-4-methylbiphenyl-3-yl)-5-hydroxy-2-azaspiro[5.5]undec-4-en-3-one]	–	–
11200 nM	1100 nM	–	308 nM	–	–	Cc1ccc(-c2ccc(Cl)c(Cl)c2)cc1-c1c(O)c2ccc(Cl)cc2[nH]c1=O [9-7, 7-chloro-3-(3′,4′-dichloro-4-methyl-biphenyl-3-yl)-4-hydroxyquinolin-2(1H)-one]	–	–
–	299 nM	–	397 nM	–	4070 nM	Cc1ccc(-c2ccc(Cl)cc2)cc1-c1c(O)c2ccc(Cl)cc2[nH]c1=O [9-11, 7-chloro-3-(4′-chloro-4-methylbiphenyl-3-yl)-4-hydroxyquinolin-2(1H)-one]	–	–
